Experimental data reported in patent US20200121618A1, “METHODS AND COMPOSITIONS FOR TREATMENT OF INFLAMMATION AND OXIDATIVE STRESS” (BIOELECTRON TECHNOLOGY CORPORATION, priority 2017, published 2020).

How the values were obtained:
[1] = Miscibility / solubility description; format: physicochemical
[2] = tested on: Human Aortic Endothelial Cells (HAEC) stimulated with IL-1β; experiment: Suppression of cytokine release from IL-1β-stimulated endothelial cells (Meso Scale); format: cell-based; conditions: for drop in levels of IL-6: versus DMSO control and alpha-tocopherol, Donors 1 and 2; for difference in cytokine suppression between diastereomers: A0001-RRR versus A0001-SRR
Method: Human Aortic Endothelial Cells (HAEC) stimulated with IL-1β result in the secretion of pro-inflammatory cytokines IL-6, IL-8 and MCP-1 as described in Wu et al., Atherosclerosis 147, 297-307 (1999). The detection of these secreted cytokines in the presence or absence of compounds was performed using Meso Scale technology.
HAEC cells from two donors (Catalog no. 2535), EGM-2 media with BulletKit supplements (Catalog no. 3162) were purchased from Lonza. IL-1β (Catalog no. 200-01B) was purchased from Peprotech. Custom MSD U-plex plates with assays to detect IL-6, IL-8 and TNF-α (Catalog no. K15067L) were purchased from Meso Scale Discovery. The cells were grown in tissue culture-treated flasks according to Lonza's instructions.
Test samples were supplied in 1.5 mL glass vials. The compounds were diluted with an appropriate volume of DMSO to result in a 10 mM stock solution. Once dissolved, they were stored at −20° C.
(§1) HAEC cells were cultured and used at passage 6. Cells were seeded in clear bottom, black wall 96-well tissue culture-treated polystyrene plates by resuspending a cell suspension at a density of 150,000 cells/mL in growth medium, then dispensing 100 microliters of cell suspension per well using an electronic multichannel pipette, corresponding to 15,000 cells/well (one plate per donor). The cell-containing plates were incubated 3 hours at 37° C. in an atmosphere with 95% humidity and 5% CO2 to allow attachment of the cells to the culture plate.
(§2) Test compounds were then added to varying final concentrations using the Tecan D300e Digital Dispenser, with subsequent back-filling with DMSO diluent to a final concentration of 0.6% (v/v). Cell plates were incubated for 20 hours at 37° C. in an atmosphere of 5% CO2 and 95% humidity.
IL-1β was then added to a final concentration of 10 nanograms/mL and then cell plates were incubated at 37° C. in an atmosphere of 5% CO2 and 95% humidity for 6 hours. Media was collected in a separate polypropylene plate, foil sealed and frozen at −80° C. for up to 96 hours.
Frozen media samples were thawed on ice and IL-6, IL-8 and TNF-alpha were measured using the Meso Scale multiplex assay according to the manufacturer's instructions. Included on each MSD plate was a dilution of IL-6, IL-8 and TNF-alpha standards to accurately quantify the secreted proteins in the media.

[3] = tested on: Male C57BL/6 mice; experiment: APAP-induced liver damage in mice, serum liver enzymes ALT and AST; format: in vivo; conditions: for mean serum concentration of liver enzyme (ALT) versus APAP alone: 300 mg/kg SC pre-dosing for 4 days
Method: Compounds described herein were tested to determine their effects on liver enzyme concentrations following introduction of APAP in sufficient quantity to cause liver trauma.
Male C57BL/6 mice (Charles River Laboratories), aged 10-12 weeks, were randomly and prospectively assigned to receive treatment with either a test compound or vehicle only. Prior to commencement of testing, the animals had been pre-dosed with a test compound of either EPI-A0001 ((RRR)-alpha tocopherol quinone) or EPI-743 (REE)-alpha tocotrienol quinone) via subcutaneous injection for 4 days at levels of 300 mg/kg body weight dose(s). One additional test compound was administrated at 4 hours prior to commencement of testing. The mice were fasted for 12 hours prior to being challenged with 300 mg/kg body weight with APAP or an equal volume of the dosing vehicle (sterile saline) via […].
The animals were each administered with a single subcutaneous (SC) 300 mg/kg body weight dose of APAP or vehicle only formulation as described herein. All animals were dosed at approximately the same time on the dosing day (±1 hour). Subcutaneous doses were administered via bolus injection between the skin and underlying layers of tissue in the scapular region on the back of each animal. The hair was not clipped from the injection site prior to dosing. The injection site was monitored for necrosis and other changes to the skin and hair.
At the time of sample collection, livers were collected for histopathology and metabolomics analyses and blood was collected for metabolomics analyses or separated into serum for the liver enzyme (AST, ALT) analyses.

[4] = tested on: Human Aortic Endothelial Cells (HAEC); experiment: Cell viability via normalized ATP levels in HAEC; format: cell-based; conditions: higher dosing levels; 6 hours; Donors 486 and 662; FIGS. 13 and 14
Method: as §1, §2
FIGS. 7-14 present an expanded array of pro-inflammatory cytokines, including IL-6, IL-8, and TNFa (Tumor Necrosis Factor alpha). […] In these figures, GT is gamma-tocopherol, and DT is delta-tocopherol.

[5] = 4 hours, APAP 300 mg/kg, FIG. 1
[6] = 24 hours, 300 mg/kg SC pre-dosing, APAP 300 mg/kg, FIGS. 3 and 4

## CC1=C(C)C(=O)C(CCC(C)(O)CCCC(C)CCCC(C)CCCC(C)C)=C(C)C1=O (stereo not drawn) [A0001, RRR-alpha tocopherol quinone]
[1]
  miscibility with other oils: infinitely miscible
  solubility in aqueous solvents: practically insoluble
[2]; 7.5 μM, 6 hours IL-1β
  IL-6 suppression: no longer evident
[2]; 15 μM, 6 hours IL-1β, compared with 60 μM and 30 μM
  suppression of IL-6 levels: not as dramatic
[2]; 30 μM, 6 hours IL-1β
  drop in levels of IL-6: > 50%
[2]; 60 μM, 6 hours IL-1β
  drop in levels of IL-6: > 50%
[2]; 7.5-60 μM, 6 hours, FIGS. 5 and 6
  dose dependence of IL-6 suppression: dosing dependent effect
[2]; 6 hours, Donors 486 and 662
  difference in cytokine suppression between diastereomers: small variation
[2]; 6 hours, Donors 486 and 662, FIGS. 7-12
  suppression of the various cytokines (IL-6, IL-8, TNFa): dose dependent suppression
[3]; [5]
  mean serum concentration of liver enzyme (ALT) versus APAP alone: reduction in mean serum concentrations
[3]; [6]
  mean serum concentration level of ALT and AST versus APAP alone (G4): reduction in mean serum concentration level
[4]
  effect on cell viability via normalized ATP levels: only a slight effect

## CC1=C(C)C(=O)C(CC[C@@](C)(O)CCC[C@H](C)CCC[C@H](C)CCCC(C)C)=C(C)C1=O [A0001-SRR]
[2]; 6 hours, Donors 486 and 662
  difference in cytokine suppression between diastereomers: small variation

## CC(=O)Nc1ccc(O)cc1 [APAP, Acetaminophen, reference compound]
[3]; APAP 300 mg/kg alone (G3), 4 hours, FIG. 1
  mean level of ALT in serum after APAP introduction: approximately 3000 U/L
[3]; APAP 300 mg/kg alone (G3), 4 hours, FIG. 2
  mean level of AST in serum after APAP introduction: ~3200 U/L

## CC(C)=CCC/C(C)=C/CC/C(C)=C/CCC(C)(O)CCC1=C(C)C(=O)C(C)=C(C)C1=O (stereo not drawn) [EPI-743, REE-alpha tocotrienol quinone]
[3]; [5]
  mean serum concentration of liver enzyme (ALT) versus APAP alone: reduction in mean serum concentrations
[3]; 4 hours, 300 mg/kg SC pre-dosing, APAP 300 mg/kg, 3 of 10, FIG. 2
  share of animals with AST levels near zero: 30%
[3]; 4 hours, 300 mg/kg SC pre-dosing, APAP 300 mg/kg, 4 of 10, FIG. 1
  share of animals with ALT near zero: 40%
[3]; [6]
  individual ALT and AST data points: several data points at or near zero
  mean serum concentration level of ALT and AST versus APAP alone (G4): reduction in mean serum concentration level
